The test system of experiment [1] is Plasmodium falciparum. Nature of the experiment: microbe, parasite or virus in culture.
Description: (§1) In vitro inhibitory activity against chloroquine-resistant Plasmodium falciparum W2 Indochina
Experiment [2] has as its system Plasmodium falciparum. Nature of the experiment: microbe, parasite or virus in culture. This is another data set of the same source.
Description: (§2) In vitro inhibitory activity against chloroquine-sensitive Plasmodium falciparum African D6
In experiment [3] the test system is Plasmodium falciparum.
Description: as §1
Experiment [4] concerns Plasmodium falciparum. The source holds these as a separate data set.
Description: as §2

SMILES strings stand for the structures. pIC50: −log10 of the molar value.

The term pIC50 denotes the negative decadic logarithm of the IC50, by convention in mol/L. High values mean a low IC50, low ones a high IC50. As for `CCNC(=O)CCC(C)C1CC[C@H]2[C@@H]3[C@H](OC(C)=O)C[C@@H]4CC5(CC[C@]4(C)[C@H]3C[C@H](OC(C)=O)[C@]12C)OOC1(CCC(CC)CC1)OO5` (mixture of isomers; 22), the pIC50 in the experiment on Plasmodium falciparum [1] was 8.02; in the experiment on Plasmodium falciparum [2], 7.70.

For the compound `CCCNC(=O)CCC(C)C1CC[C@H]2[C@@H]3[C@H](OC(C)=O)C[C@@H]4CC5(CC[C@]4(C)[C@H]3C[C@H](OC(C)=O)[C@]12C)OOC1(CCCCC1C)OO5` (some centres not stated), the negative-log IC50 (pIC50) in the experiment on Plasmodium falciparum [1] was 8.03; in the experiment on Plasmodium falciparum [2], 7.88.

Regarding `COC(=O)CCC(C)C1CC[C@H]2[C@@H]3[C@H](OC(C)=O)C[C@@H]4CC5(CC[C@]4(C)[C@H]3C[C@H](OC(C)=O)[C@]12C)OOC1(CCCCC1C)OO5` (some centres not stated), the values for the negative logarithm of the IC50 (pIC50) in the experiment with Plasmodium falciparum [1] and with Plasmodium falciparum [2] were 7.81 and 7.57, respectively.

Regarding `CCCNC(=O)CCC(C)C1CC[C@H]2[C@@H]3[C@H](OC(C)=O)C[C@@H]4CC5(CC[C@]4(C)[C@H]3C[C@H](OC(C)=O)[C@]12C)OOC1(CCC(CC)CC1)OO5` (mixture of isomers; 23), the negative-log IC50 (pIC50) in the experiment on Plasmodium falciparum [3] is 8.35; in the experiment on Plasmodium falciparum [4], 8.08.

As for `CCNC(=O)CCC(C)C1CC[C@H]2[C@@H]3[C@H](OC(C)=O)C[C@@H]4CC5(CC[C@]4(C)[C@H]3C[C@H](OC(C)=O)[C@]12C)OOC1(CCC(C)CC1)OO5` (stereo in doubt; 18), the pIC50 with Plasmodium falciparum [3] is 8.00; in the experiment with Plasmodium falciparum [4], 7.81.

Take `CCC1CCC2(CC1)OOC1(CC[C@@]3(C)[C@H](C[C@@H](OC(C)=O)[C@@H]4[C@@H]3C[C@H](OC(C)=O)[C@]3(C)C(C(C)CCC(=O)O)CC[C@@H]43)C1)OO2` (stereo in doubt; 4j): the pIC50 is 7.84 in the experiment with Plasmodium falciparum [3] and 8.01 with Plasmodium falciparum [4].

On to `CCC1CCC2(CC1)OOC1(CC[C@@]3(C)[C@H](C[C@@H](OC(C)=O)[C@@H]4[C@@H]3C[C@H](OC(C)=O)[C@]3(C)C(C(C)CCC(N)=O)CC[C@@H]43)C1)OO2` (mixture of isomers; 20), for which the pIC50 was 7.97 in the experiment with Plasmodium falciparum [3] and 8.08 with Plasmodium falciparum [4].

With `CCC1CCC2(CC1)OOC1(CC[C@@]3(C)[C@H](C[C@@H](OC(C)=O)[C@@H]4[C@@H]3C[C@H](OC(C)=O)[C@]3(C)C(C(C)CCC(N)=O)CC[C@@H]43)C1)OO2` (mixture of isomers; 24), the pIC50 in the experiment on Plasmodium falciparum [4] was 7.51; in the experiment on Plasmodium falciparum [1] it was 7.90.

Consider `CCC1CCC2(CC1)OOC1(CC[C@@]3(C)[C@H](C[C@@H](OC(C)=O)[C@@H]4[C@@H]3C[C@H](OC(C)=O)[C@]3(C)C(C(C)CCC(=O)OC)CC[C@@H]43)C1)OO2` (single isomer, unassigned; 3i), for which the results for the pIC50 in the experiment with Plasmodium falciparum [3] and with Plasmodium falciparum [4] were 7.81 and 8.17, respectively.

For `CC(=O)O[C@H]1C[C@H]2[C@@H]([C@H](OC(C)=O)C[C@@H]3CC4(CC[C@@]32C)OOC2(CCCCC2)OO4)[C@@H]2CCC(C(C)CCC(N)=O)[C@@]12C` (some centres not stated), the values for the pIC50 in the experiment with Plasmodium falciparum [1] and in the experiment with Plasmodium falciparum [2] were 8.32 and 7.93, respectively.

`COC(=O)CCC(C)C1CC[C@H]2[C@@H]3[C@H](OC(C)=O)C[C@@H]4CC5(CC[C@]4(C)[C@H]3C[C@H](OC(C)=O)[C@]12C)OOC1(OO5)C(C)CCCC1C` (some centres not stated): the negative logarithm of the IC50 (pIC50) with Plasmodium falciparum [1] was 6.45; in the experiment on Plasmodium falciparum [2], 7.51.

For the compound `CCCNC(=O)CCC(C)C1CC[C@H]2[C@@H]3[C@H](OC(C)=O)C[C@@H]4CC5(CC[C@]4(C)[C@H]3C[C@H](OC(C)=O)[C@]12C)OOC1(CCC(CC)CC1)OO5` (mixture of isomers; 27), the values for the pIC50 in the experiment with Plasmodium falciparum [3] and with Plasmodium falciparum [4] were 6.91 and 7.05, respectively.

Regarding `CCC1CCC2(CC1)OOC1(CC[C@@]3(C)[C@H](C[C@@H](OC(C)=O)[C@@H]4[C@@H]3C[C@H](OC(C)=O)[C@]3(C)C(C(C)CCC(=O)O)CC[C@@H]43)C1)OO2` (stereo in doubt; 4i), the results for the negative logarithm of the IC50 (pIC50) in the experiment with Plasmodium falciparum [1] and in the experiment with Plasmodium falciparum [2] were 8.14 and 8.24, respectively.

On to `CNC(=O)CCC(C)C1CC[C@H]2[C@@H]3[C@H](OC(C)=O)C[C@@H]4CC5(CC[C@]4(C)[C@H]3C[C@H](OC(C)=O)[C@]12C)OOC1(CCCCC1C)OO5` (some centres not stated), for which the negative-log IC50 (pIC50) with Plasmodium falciparum [1] was 8.00; in the experiment on Plasmodium falciparum [2] it was 7.82.

Take `COC(=O)CCC(C)C1CC[C@H]2[C@@H]3[C@H](OC(C)=O)C[C@@H]4CC5(CC[C@]4(C)[C@H]3C[C@H](OC(C)=O)[C@]12C)OOC1(CCC(C)CC1)OO5` (stereo in doubt; 3h): the pIC50 in the experiment on Plasmodium falciparum [3] is 7.88; in the experiment on Plasmodium falciparum [4], 7.61.

On to `COC(=O)CCC(C)C1CC[C@H]2[C@@H]3[C@H](OC(C)=O)C[C@@H]4CC5(CC[C@]4(C)[C@H]3C[C@H](OC(C)=O)[C@]12C)OOC1(CCCC1)OO5` (some centres not stated), for which the figures for the pIC50 with Plasmodium falciparum [1] and with Plasmodium falciparum [2] were 7.56 and 7.41, respectively.

In the case of `COC(=O)CNC(=O)CCC(C)C1CC[C@H]2[C@@H]3[C@H](OC(C)=O)C[C@@H]4CC5(CC[C@]4(C)[C@H]3C[C@H](OC(C)=O)[C@]12C)OOC1(CCCCC1)OO5` (some centres not stated), the values for the negative-log IC50 (pIC50) in the experiment with Plasmodium falciparum [1] and in the experiment with Plasmodium falciparum [2] were 7.97 and 7.66, respectively.

With `COC(=O)CCC(C)C1CC[C@H]2[C@@H]3[C@H](OC(C)=O)C[C@@H]4CC5(CC[C@]4(C)[C@H]3C[C@H](OC(C)=O)[C@]12C)OOC1(CCCCC1)OO5` (some centres not stated), the pIC50 in the experiment on Plasmodium falciparum [1] was 7.77; with Plasmodium falciparum [2] it was 7.67.

Take `OC(c1cc(C(F)(F)F)nc2c(C(F)(F)F)cccc12)C1CCCCN1` (configuration not stated) [MEFLOQUINE]: the pIC50 with Plasmodium falciparum [2] is 7.55.

Turning to `CCCNC(=O)CCC(C)C1CC[C@H]2[C@@H]3[C@H](OC(C)=O)C[C@@H]4CC5(CC[C@]4(C)[C@H]3C[C@H](OC(C)=O)[C@]12C)OOC1(CCCCC1)OO5` (some centres not stated), the pIC50 with Plasmodium falciparum [1] was 8.17; in the experiment with Plasmodium falciparum [2], 7.83.

As to `CC(=O)O[C@H]1C[C@H]2[C@@H]([C@H](OC(C)=O)C[C@@H]3CC4(CC[C@@]32C)OOC2(CCCCC2C)OO4)[C@@H]2CCC(C(C)CCC(=O)O)[C@@]12C` (some centres not stated), the pIC50 is 7.43 in the experiment on Plasmodium falciparum [1] and 7.17 in the experiment with Plasmodium falciparum [2].

For `CCNC(=O)CCC(C)C1CC[C@H]2[C@@H]3[C@H](OC(C)=O)C[C@@H]4CC5(CC[C@]4(C)[C@H]3C[C@H](OC(C)=O)[C@]12C)OOC1(CCC(CC)CC1)OO5` (mixture of isomers; 26), the pIC50 in the experiment on Plasmodium falciparum [3] was 7.74; in the experiment on Plasmodium falciparum [4] it was 7.64.

With `COC(=O)CCC(C)C1CC[C@H]2[C@@H]3[C@H](OC(C)=O)C[C@@H]4CC5(CC[C@]4(C)[C@H]3C[C@H](OC(C)=O)[C@]12C)OOC1(CCC(C(C)(C)C)CC1)OO5` (stereo in doubt; 3k), the pIC50 with Plasmodium falciparum [3] is 7.28; in the experiment on Plasmodium falciparum [4], 6.97.

For `CCC1CCC2(CC1)OOC1(CC[C@@]3(C)[C@H](C[C@@H](OC(C)=O)[C@@H]4[C@@H]3C[C@H](OC(C)=O)[C@]3(C)C(C(C)CCC(=O)NC)CC[C@@H]43)C1)OO2` (mixture of isomers; 21), the values for the pIC50 in the experiment with Plasmodium falciparum [4] and in the experiment with Plasmodium falciparum [1] were 8.14 and 8.11, respectively.

As to `CCC1CCC2(CC1)OOC1(CC[C@@]3(C)[C@H](C[C@@H](OC(C)=O)[C@@H]4[C@@H]3C[C@H](OC(C)=O)[C@]3(C)C(C(C)CCC(=O)NC)CC[C@@H]43)C1)OO2` (mixture of isomers; 25), the results for the negative-log IC50 (pIC50) in the experiment on Plasmodium falciparum [3] and in the experiment with Plasmodium falciparum [4] were 8.21 and 7.55, respectively.

As for `COC(=O)CCC(C)C1CC[C@H]2[C@@H]3[C@H](OC(C)=O)C[C@@H]4CC5(CC[C@]4(C)[C@H]3C[C@H](OC(C)=O)[C@]12C)OOC1(CC(C)CCC1C(C)C)OO5` (some centres not stated), the negative logarithm of the IC50 (pIC50) was 7.14 in the experiment with Plasmodium falciparum [1] and 6.81 in the experiment with Plasmodium falciparum [2].

Take `CCNC(=O)CCC(C)C1CC[C@H]2[C@@H]3[C@H](OC(C)=O)C[C@@H]4CC5(CC[C@]4(C)[C@H]3C[C@H](OC(C)=O)[C@]12C)OOC1(CCCCC1C)OO5` (some centres not stated): the negative-log IC50 (pIC50) in the experiment on Plasmodium falciparum [1] was 8.16; with Plasmodium falciparum [2], 7.90.

`CNC(=O)CCC(C)C1CC[C@H]2[C@@H]3[C@H](OC(C)=O)C[C@@H]4CC5(CC[C@]4(C)[C@H]3C[C@H](OC(C)=O)[C@]12C)OOC1(CCC(C)CC1)OO5` (stereo in doubt; 17): the pIC50 was 7.93 with Plasmodium falciparum [3] and 7.78 in the experiment on Plasmodium falciparum [4].

For `CCC1CCC2(CC1)OOC1(CC[C@@]3(C)[C@H](C[C@@H](OC(C)=O)[C@@H]4[C@@H]3C[C@H](OC(C)=O)[C@]3(C)C(C(C)CCC(=O)OC)CC[C@@H]43)C1)OO2` (single isomer, unassigned; 3j), the pIC50 is 7.75 with Plasmodium falciparum [4] and 7.55 with Plasmodium falciparum [1].

In the case of `CCCNC(=O)CCC(C)C1CC[C@H]2[C@@H]3[C@H](OC(C)=O)C[C@@H]4CC5(CC[C@]4(C)[C@H]3C[C@H](OC(C)=O)[C@]12C)OOC1(CCC(C)CC1)OO5` (stereo in doubt; 19), the pIC50 is 7.08 in the experiment with Plasmodium falciparum [3] and 7.07 in the experiment on Plasmodium falciparum [4].

With `COC(=O)CCC(C)C1CC[C@H]2[C@@H]3[C@H](OC(C)=O)C[C@@H]4CC5(CC[C@]4(C)[C@H]3C[C@H](OC(C)=O)[C@]12C)OOC1(CCCCCCC1)OO5` (some centres not stated), the results for the pIC50 with Plasmodium falciparum [1] and in the experiment on Plasmodium falciparum [2] were 7.70 and 7.31, respectively.

For the compound `COC(=O)CCC(C)C1CC[C@H]2[C@@H]3[C@H](OC(C)=O)C[C@@H]4CC5(CC[C@]4(C)[C@H]3C[C@H](OC(C)=O)[C@]12C)OOC1(CCC(C(C)(C)C)CC1)OO5` (stereo in doubt; 3l), the pIC50 is 7.29 in the experiment on Plasmodium falciparum [4] and 7.56 in the experiment with Plasmodium falciparum [1].

For `CC(=O)O[C@H]1C[C@H]2[C@@H]([C@H](OC(C)=O)C[C@@H]3CC4(CC[C@@]32C)OOC2(CCC(C)CC2)OO4)[C@@H]2CCC(C(C)CCC(N)=O)[C@@]12C` (stereo in doubt; 16), the pIC50 in the experiment on Plasmodium falciparum [3] was 7.85; in the experiment on Plasmodium falciparum [4] it was 7.70.

Regarding `CC(=O)O[C@H]1C[C@H]2[C@@H]([C@H](OC(C)=O)C[C@@H]3CC4(CC[C@@]32C)OOC2(CCC(C)CC2)OO4)[C@@H]2CCC(C(C)CCC(=O)O)[C@@]12C` (stereo in doubt; 4h), the negative logarithm of the IC50 (pIC50) was 7.75 in the experiment with Plasmodium falciparum [3] and 7.51 with Plasmodium falciparum [4].

Source of the values: ChEMBL document CHEMBL1135585, “Mixed steroidal 1,2,4,5-tetraoxanes: antimalarial and antimycobacterial activity” (J Med Chem, 2002).
